In publication PMC6934184, “Selective DNA-PKcs inhibition extends the therapeutic index of localized radiotherapy and chemotherapy” (The Journal of Clinical Investigation, 2019) one finds inhibition data, which are given here for one compound.

For the test, the target named is T1, CSK (Homo sapiens, UniProt P41240).
T1 construct: purchased Thermo Fisher Scientific (Life Technologies) SelectScreen
Put plainly: SelectScreen Z'LYTE. It is filed as biochemical. The essentials: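 NU5455 was profiled across the SelectScreen Broad panel of kinase activity and binding assays. Z'LYTE reactions such as CSF1R ran at apparent Km ATP, while the Adapta CAMK1 assay used ATP listed as 10. Values are given as percent.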

SMILES strings stand for the structures.

T1 sequence (P41240 whole entry): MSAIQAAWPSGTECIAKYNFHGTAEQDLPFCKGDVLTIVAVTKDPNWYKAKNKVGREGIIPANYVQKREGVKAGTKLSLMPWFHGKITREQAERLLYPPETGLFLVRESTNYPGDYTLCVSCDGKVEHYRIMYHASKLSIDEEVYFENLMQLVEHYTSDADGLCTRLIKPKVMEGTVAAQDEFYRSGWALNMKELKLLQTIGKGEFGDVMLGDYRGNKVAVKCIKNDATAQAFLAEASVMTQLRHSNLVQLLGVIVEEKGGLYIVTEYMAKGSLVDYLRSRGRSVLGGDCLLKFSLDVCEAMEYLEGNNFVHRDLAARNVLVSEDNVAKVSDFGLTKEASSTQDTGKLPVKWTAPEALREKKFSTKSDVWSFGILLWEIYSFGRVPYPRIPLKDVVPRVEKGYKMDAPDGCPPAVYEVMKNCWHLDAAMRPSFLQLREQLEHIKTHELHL

In general, inhibition refers to the change of the read-out against control, counted positive when it falls. High values mean a strong effect, low ones a weak effect. Take `CN(C(=O)CN1CCOCC1)c1ccc2sc3c(-c4cccc5c(=O)cc(N6CC7CCC(C6)O7)oc45)cccc3c2c1` [NU5455]: the inhibition at 1 µM turned out to be 7.6%.
